In ChEMBL document CHEMBL1144935, “Synthesis, biological evaluation, and receptor docking simulations of 2-[(acylamino)ethyl]-1,4-benzodiazepines as kappa-opioid receptor agonists endowed with antinociceptive and antiamnesic activity” (J Med Chem, 2003):

What was measured:
[1] = target: T1, Kappa-type opioid receptor (Homo sapiens, UniProt P41145); experiment: Binding affinity against opioid receptor kappa 1 from human cloned receptor
[2] = target: T1, Kappa-type opioid receptor; experiment: Binding constant towards human Opioid receptor kappa 1 was reported
[3] = target: Kappa-type opioid receptor (Cavia porcellus, UniProt P41144); experiment: Binding affinity determined against Opioid receptor kappa 1 from a native receptor in guinea pig
Sequence of Kappa-type opioid receptor (Cavia porcellus, UniProt P41144) (P41144 whole entry): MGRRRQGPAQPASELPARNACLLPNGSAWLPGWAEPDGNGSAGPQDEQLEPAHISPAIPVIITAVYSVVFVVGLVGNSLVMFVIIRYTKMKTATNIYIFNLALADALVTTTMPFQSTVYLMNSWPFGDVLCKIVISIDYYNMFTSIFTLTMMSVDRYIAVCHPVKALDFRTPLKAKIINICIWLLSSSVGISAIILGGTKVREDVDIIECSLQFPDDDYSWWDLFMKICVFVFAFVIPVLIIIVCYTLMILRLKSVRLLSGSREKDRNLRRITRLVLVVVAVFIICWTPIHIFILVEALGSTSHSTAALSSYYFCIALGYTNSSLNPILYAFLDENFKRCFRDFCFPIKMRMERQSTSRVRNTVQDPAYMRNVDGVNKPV

Mu-type opioid receptor [4] = target: Mu-type opioid receptor (Homo sapiens, UniProt P35372); experiment: Binding affinity determined against Opioid receptor mu 1 from human cloned receptor
Sequence of Mu-type opioid receptor (Homo sapiens, UniProt P35372) (P35372 whole entry): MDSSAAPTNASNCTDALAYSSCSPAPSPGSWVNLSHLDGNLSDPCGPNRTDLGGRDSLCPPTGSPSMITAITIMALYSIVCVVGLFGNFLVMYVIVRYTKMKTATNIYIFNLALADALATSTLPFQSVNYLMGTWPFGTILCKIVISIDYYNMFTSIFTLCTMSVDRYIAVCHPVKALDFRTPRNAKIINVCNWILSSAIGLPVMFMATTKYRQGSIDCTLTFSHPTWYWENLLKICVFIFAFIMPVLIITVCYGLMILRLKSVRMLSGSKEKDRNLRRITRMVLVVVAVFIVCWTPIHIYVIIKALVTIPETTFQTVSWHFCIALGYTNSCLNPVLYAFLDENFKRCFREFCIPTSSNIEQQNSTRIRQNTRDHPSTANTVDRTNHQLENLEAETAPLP

[5] = target: Delta-type opioid receptor (Homo sapiens, UniProt P41143)
Sequence of Delta-type opioid receptor (P41143 whole entry): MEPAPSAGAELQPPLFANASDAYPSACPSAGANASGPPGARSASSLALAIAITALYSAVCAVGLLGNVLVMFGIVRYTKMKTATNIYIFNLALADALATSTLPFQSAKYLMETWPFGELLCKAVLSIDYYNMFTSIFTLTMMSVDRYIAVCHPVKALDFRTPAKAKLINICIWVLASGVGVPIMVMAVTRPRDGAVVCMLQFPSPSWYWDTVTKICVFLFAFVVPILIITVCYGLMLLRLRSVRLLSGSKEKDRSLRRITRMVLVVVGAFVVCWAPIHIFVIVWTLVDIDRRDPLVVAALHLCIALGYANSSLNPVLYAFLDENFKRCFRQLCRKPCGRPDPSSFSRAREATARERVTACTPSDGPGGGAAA
Description: Binding affinity determined against Opioid receptor delta 1 from human cloned receptor

Mu-type opioid receptor [6] = target: Mu-type opioid receptor (Cavia porcellus, UniProt P97266); experiment: Binding affinity of compound was determined against Opioid receptor mu 1 from native receptor in guinea pig
Sequence of Mu-type opioid receptor (Cavia porcellus, UniProt P97266) (P97266 whole entry): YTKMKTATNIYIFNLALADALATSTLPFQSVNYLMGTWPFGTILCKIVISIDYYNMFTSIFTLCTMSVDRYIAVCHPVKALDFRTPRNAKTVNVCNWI

T1 sequence (P41145 whole entry): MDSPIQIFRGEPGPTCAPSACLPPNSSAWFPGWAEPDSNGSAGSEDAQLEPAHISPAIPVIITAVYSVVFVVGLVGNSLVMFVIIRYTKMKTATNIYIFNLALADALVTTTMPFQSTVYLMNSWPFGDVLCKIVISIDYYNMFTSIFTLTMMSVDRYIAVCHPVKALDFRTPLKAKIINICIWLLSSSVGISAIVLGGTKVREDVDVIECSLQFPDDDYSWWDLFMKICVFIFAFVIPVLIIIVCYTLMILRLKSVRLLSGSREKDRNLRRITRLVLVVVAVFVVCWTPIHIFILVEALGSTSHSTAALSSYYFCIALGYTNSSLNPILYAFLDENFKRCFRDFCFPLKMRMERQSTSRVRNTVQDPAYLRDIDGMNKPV

Structure (SMILES)	Ki [1] [nM]	Ki [2] [nM]	Ki [3] [nM]	Ki (Mu-type opioid receptor [4]) [nM]	Ki [5] [nM]	Ki (Mu-type opioid receptor [6]) [nM]
O=C(NCCC1CN=C(c2ccccc2)c2ccccc2N1)c1cccs1 (configuration not stated)	0.45	0.447	1.74			
CN1c2ccc(Cl)cc2C(c2ccccc2)=NCC1CCNC(=O)c1cccs1 (configuration not stated)	0.7			26.3		
CN1c2ccccc2C(c2ccccc2F)=NC[C@@H]1CCNC(=O)c1ccsc1	0.17	0.17		1.5	27.8	
CN1c2ccc(Cl)cc2C(c2ccccc2)=NCC1CCNC(=O)c1cc2ccccc2[nH]1 (configuration not stated)	13.6	13.5				
CN1c2ccc(Cl)cc2C(c2ccccc2)=NC[C@H]1CCNC(=O)c1cccs1	0.79			33.2		
CN(CCC1CN=C(c2ccccc2)c2ccccc2N1C)C(=O)c1cccs1 (configuration not stated)	4.34	4.37	25.7			
CN1c2ccc(Cl)cc2C(c2ccccc2)=NCC1CCNC(=O)c1ccc(F)cc1 (configuration not stated)	0.55	0.55				
CN1c2ccccc2C(c2ccccc2F)=NC[C@H]1CCNC(=O)c1ccsc1	0.71			24.8	438	
CN1c2ccc(Cl)cc2C(c2ccccc2)=NCC1CCNC(=O)c1ccccc1F (configuration not stated)	1.52	1.55				
CN1c2ccccc2C(c2ccccc2)=NC[C@@H]1CCNC(=O)c1cccs1	0.43	0.427		9.2		
O=C(NCCC1CN=C(c2ccccc2)c2ccccc2N1)c1ccccc1F (configuration not stated)	0.53	0.537				
CN1c2ccccc2C(c2ccccc2)=NCC1CCNC(=O)c1ccccc1F (configuration not stated)	0.36	0.363				
CN1c2ccccc2C(c2ccccc2)=NC[C@H]1CCNC(=O)c1cccs1	1.28			54.8		
CN1c2ccc(Cl)cc2C(c2ccccc2)=NCC1CCNC(=O)c1ccc(Cl)cc1 (configuration not stated)	1.31	1.32				
CN1c2ccc(Cl)cc2C(c2ccccc2)=NC[C@@H]1CCNC(=O)c1cccs1	0.69	0.692		27.4		
O=C(NCCC1CN=C(c2ccccc2)c2ccccc2N1)c1ccccc1 (configuration not stated)	0.25	0.251				
CN1c2ccccc2C(c2ccccc2)=NCC1CCNC(=O)c1ccc(F)cc1 (configuration not stated)	0.3	0.302				
CN1c2ccccc2C(c2ccccc2F)=NCC1CCNC(=O)c1ccsc1 (configuration not stated)	0.37		0.78	3	69	1.93
O=C(NCCC1CN=C(c2ccccc2)c2ccccc2N1)c1ccc(F)cc1 (configuration not stated)	0.28	0.282				
CN1c2ccccc2C(c2ccccc2)=NCC1CCNC(=O)c1ccc([N+](=O)[O-])cc1 (configuration not stated)	0.47	0.479				
COc1cccc2c1C(c1ccccc1)=NCC(CCNC(=O)c1cccs1)N2C (configuration not stated)	3.77	3.8	116			
Oc1ccc2c3c1O[C@H]1c4[nH]c5ccccc5c4C[C@@]4(O)[C@@H](C2)N(CC2CC2)CC[C@]314 [NALTRINDOLE]			10.2			14.7
CN1c2ccccc2C(c2ccccc2)=NCC1CCNC(=O)c1cccs1 (configuration not stated)	0.58			9.4		
